In ChEMBL document CHEMBL1154918, “Cytotoxic chemical constituents from the roots of Cimicifuga foetida. [corrected]” (J Nat Prod, 2010):

How the values were obtained:
Type in all cases: functional, cell-based
[1] = system: HepG2; assay: Cytotoxicity against human HepG2 cells after 72 hrs by MTT assay; conditions: HepG2, 72 h
[2] = system: HT-29; assay: Cytotoxicity against human HT-29 cells after 72 hrs by MTT assay; conditions: HT-29, 72 h
[3] = system: MCF7; assay: Cytotoxicity against human MCF7 cells after 72 hrs by MTT assay; conditions: MCF7, 72 h
[4] = system: MKN-28; assay: Cytotoxicity against human MKN28 cells after 72 hrs by MTT assay; conditions: MKN-28, 72 h

Compound | IC50 [1] | IC50 [2] | IC50 [3] | IC50 [4]
CC(=O)O[C@@H]1[C@@H](O)[C@H](O[C@H]2CC[C@]34C[C@]35CC[C@]3(C)[C@H]6[C@H](C)C[C@H]7O[C@@]6(C[C@@H]7C(C)(C)OC(C)=O)[C@H](O)[C@@]3(C)[C@@H]5CC[C@H]4C2(C)C)OC[C@H]1O | 0.71 µM | 28.9 µM | > 100 µM | > 100 µM
CC(=O)O[C@@H]1[C@@H](O)[C@H](O[C@H]2CC[C@]34C[C@]35C[C@@H](OC(C)=O)[C@]3(C)[C@H]6[C@H](C)C[C@]7(C[C@H](O)[C@@]8(C)O[C@@H]78)O[C@H]6C[C@@]3(C)[C@@H]5CC[C@H]4C2(C)C)OC[C@H]1O | 32.1 µM | 50.1 µM | > 100 µM | 53.4 µM
CC(=O)O[C@@H]1C[C@@]23C[C@@]24CC[C@H](O)C(C)(C)[C@@H]4CC[C@H]3[C@]2(C)C[C@@H]3O[C@@]4(CC[C@@]5(C)O[C@@H]45)C[C@@H](C)[C@@H]3[C@@]12C | 27.7 µM | 35.4 µM | > 100 µM | 82.2 µM
CC(=O)O[C@@H]1C[C@@]23C[C@@]24CC[C@H](O[C@@H]2OC[C@@H](O)[C@H](O)[C@H]2O)C(C)(C)[C@@H]4CC[C@H]3[C@]2(C)[C@@H](O)[C@@]34C[C@H](C(C)(C)OC(C)=O)[C@@H](C[C@@H](C)[C@@H]3[C@@]12C)O4 | > 100 µM | > 100 µM | 47.5 µM | > 100 µM
CC(=O)O[C@@H]1C[C@@]23C[C@@]24CC[C@H](O)C(C)(C)[C@@H]4CC[C@H]3[C@]2(C)[C@@H](O)[C@@]34C[C@H](C(C)(C)O)[C@@H](C[C@@H](C)[C@@H]3[C@@]12C)O4 | 43.1 µM | > 100 µM | > 100 µM | > 100 µM
CC(=O)O[C@@H]1CO[C@@H](O[C@H]2CC[C@]34C[C@]35CC[C@]3(C)[C@H]6[C@H](C)C[C@H]7O[C@@]6(C[C@@H]7C(C)(C)OC(C)=O)[C@H](O)[C@@]3(C)[C@@H]5CC[C@H]4C2(C)C)[C@H](O)[C@H]1O | 2.8 µM | 26.1 µM | > 100 µM | > 100 µM
C/C=C/C(=O)O[C@@H]1CO[C@@H](O[C@H]2CC[C@]34C[C@]35CC[C@]3(C)[C@H]6[C@H](C)C[C@H]7O[C@@]6(C[C@@H]7C(C)(C)OC(C)=O)[C@H](O)[C@@]3(C)[C@@H]5CC[C@H]4C2(C)C)[C@H](O)[C@H]1O | 1.29 µM | > 100 µM | > 100 µM | > 100 µM
CC(=O)OC(C)(C)[C@H]1C[C@@]23O[C@@H]1C[C@@H](C)[C@@H]2[C@@]1(C)CC[C@@]24C[C@@]25CC[C@H](O)C(C)(C)[C@@H]5CC[C@H]4[C@]1(C)[C@H]3O | 20.3 µM | > 100 µM | > 100 µM | > 100 µM
CC(C)(O)[C@@H]1Cc2c(cc3oc(CO)cc(=O)c3c2O)O1 [NORCIMIFUGIN] | 5.55 µM | > 100 µM | > 100 µM | > 100 µM
CC(=O)O[C@@H]1C[C@@]23C[C@@]24CC[C@H](O)C(C)(C)[C@@H]4CC[C@H]3[C@]2(C)C[C@@H]3O[C@]4(C[C@@H](C)[C@@H]3[C@@]12C)C[C@H](O)[C@@]1(C)O[C@@H]41 [ACTEINOL] | 2.56 µM | > 100 µM | > 100 µM | > 100 µM
CC(=O)O[C@@H]1[C@@H](O)[C@H](O[C@H]2CC[C@]34C[C@]35C[C@@H](OC(C)=O)[C@]3(C)[C@H]6[C@H](C)C[C@@]7(CC[C@]8(C)O[C@H]78)O[C@H]6C[C@@]3(C)[C@@H]5CC[C@H]4C2(C)C)OC[C@H]1O | 1.41 µM | 35.7 µM | > 100 µM | > 100 µM
CC(=O)O[C@@H]1C[C@@]23C[C@@]24CC[C@H](O[C@@H]2OC[C@@H](O)[C@H](O)[C@H]2O)C(C)(C)[C@@H]4CC[C@H]3[C@]2(C)C[C@@H]3OC(C(=O)C(C)C)=C[C@@H](C)[C@@H]3[C@@]12C [ASIATICOSIDE A] | 4.02 µM | 49.4 µM | > 100 µM | 54.8 µM
C[C@@H]1C[C@H]2O[C@@]3(C[C@@H]2C(C)(C)O)[C@H](O)[C@@]2(C)[C@@H]4CC[C@H]5C(C)(C)[C@@H](O[C@@H]6OC[C@H](O)[C@H](O)[C@H]6O)CC[C@@]56C[C@@]46CC[C@]2(C)[C@@H]13 | 20.4 µM | > 100 µM | > 100 µM | > 100 µM
C[C@@H]1C[C@H]2O[C@@]3(C[C@@H]2C(C)(C)O)[C@H](O)[C@@]2(C)[C@@H]4CC[C@H]5C(C)(C)C(=O)CC[C@@]56C[C@@]46CC[C@]2(C)[C@@H]13 | 5.51 µM | 15.4 µM | > 100 µM | 72 µM
C/C=C/C(=O)O[C@H]1[C@H](O[C@H]2CC[C@]34C[C@]35CC[C@]3(C)[C@H]6[C@H](C)C[C@H]7O[C@@]6(C[C@@H]7C(C)(C)OC(C)=O)[C@H](O)[C@@]3(C)[C@@H]5CC[C@H]4C2(C)C)OC[C@@H](O)[C@@H]1O | 6.37 µM | 78.5 µM | > 100 µM | 53.8 µM
